Measured values taken from patent publication US9156856B2, “Apoptosis-inducing agents for the treatment of cancer and immune and autoimmune diseases” (AbbVie Inc., priority 2009, dated 2015).

The compounds below were run against Bcl-2 (Homo sapiens (Human), UniProt P10415) (assay: Time Resolved-Fluorescence Resonance Energy Transfer (TR-FRET) Bcl-2 binding assay with F-Bak peptide probe). Details: GST-Bcl-2 1 nM, F-Bak peptide probe 100 nM, Tb-anti-GST antibody 1 nM; Ki by Wang's equation.
Method: Determination of the utility of compounds having Formula (I) as binders to and inhibitors of anti-apoptotic Bcl-2 proteins was performed using the Time Resolved-Fluorescence Resonance Energy Transfer (TR-FRET) Assay. Tb-anti-GST antibody was purchased from Invitrogen (Catalog No. PV4216).
Representative compounds were serially diluted in dimethyl sulfoxide (DMSO) starting at 50 μM (2× starting concentration; 10% DMSO) and 10 μL were transferred into a 384-well plate. The samples are then mixed on a shaker for 1 minute and incubated for an additional 3 hours at room temperature. For each assay, the probe/antibody and protein/probe/antibody were included on each assay plate as negative and positive controls, respectively. Fluorescence was measured on the ENVISION plate reader (Perkin Elmer) using a 340/35 nm excitation filter and 520/525 (F-Bak peptide) and 495/510 nm (Tb-labeled […] antibody) emission filters Inhibition constants (Ki) are shown in TABLE 2 below and were determined using Wang's equation (Wang Z.-X. An Exact Mathematical Expression For Describing Competitive Binding Of Two Different Ligands To A Protein Molecule. FEBS Lett. 1995, 360:111-4).
The inhibition constant (Ki) is the dissociation constant of an enzyme-inhibitor complex or a protein/small molecule complex, wherein the small molecule is inhibiting binding of one protein to another protein. So a large K, value indicates a low binding affinity and a small Ki value indicates a high binding affinity.
The compounds are therefore expected to have utility in treatment of diseases during which anti-apoptotic Bcl-2 protein is expressed.

Sequence of Bcl-2 (P10415 whole entry): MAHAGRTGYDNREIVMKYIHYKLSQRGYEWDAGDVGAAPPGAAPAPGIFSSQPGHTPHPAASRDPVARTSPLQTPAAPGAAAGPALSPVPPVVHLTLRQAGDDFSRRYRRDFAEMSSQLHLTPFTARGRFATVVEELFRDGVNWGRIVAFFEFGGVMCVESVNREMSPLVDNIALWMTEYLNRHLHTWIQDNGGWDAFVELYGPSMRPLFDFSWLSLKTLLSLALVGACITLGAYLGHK

SMILES	Ki
COC1(CC2CCCCC2)CCN(c2ccc(C(=O)NS(=O)(=O)c3cc([N+](=O)[O-])c(N[C@H](CCN(C)C)CSc4ccccc4)s3)cc2)CC1 [Example 1, 4-[4-(cyclohexylmethyl)-4-methoxypiperidin-1-yl]-N-{[5-({(1R)-3-(dimethylamino)-1-[(phenylthio)methyl]propyl}amino)-4-nitrothien-2-yl]sulfonyl}benzamide]	51.4 nM
COC1(Cc2cccc(C)c2)CCN(c2ccc(C(=O)NS(=O)(=O)c3cc([N+](=O)[O-])c(N[C@H](CCN(C)C)CSc4ccccc4)s3)cc2)CC1 [Example 2, N-{[5-({(1R)-3-(dimethylamino)-1-[(phenylthio)methyl]propyl}amino)-4-nitrothien-2-yl]sulfonyl}-4-[4-methoxy-4-(3-methylbenzyl)piperidin-1-yl]benzamide]	82.9 nM
CN(C)CC[C@H](CSc1ccccc1)Nc1sc(S(=O)(=O)NC(=O)c2ccc(N3CCN(CC=C(c4ccccc4)c4ccccc4)CC3)cc2)cc1[N+](=O)[O-] [Example 3, N-{[5-({(1R)-3-(dimethylamino)-1-[(phenylthio)methyl]propyl}amino)-4-nitrothien-2-yl]sulfonyl}-4-[4-(3,3-diphenylprop-2-enyl)piperazin-1-yl]benzamide]	51.7 nM
CC(=O)N(CCSc1ccccc1)C1CCN(S(=O)(=O)NC(=O)c2ccc(N3CCN(Cc4ccccc4-c4ccc(Cl)cc4)CC3)cc2)CC1 [Example 5, N-[(4-{acetyl[2-(phenylthio)ethyl]amino}piperidin-1-yl)sulfonyl]-4-{4-[(4′-chloro-1,1′-biphenyl-2-yl)methyl]piperazin-1-yl}benzamide]	176 nM
CN(CCSc1ccccc1)C1CCN(S(=O)(=O)NC(=O)c2ccc(N3CCN(Cc4ccccc4-c4ccc(Cl)cc4)CC3)cc2)CC1 [Example 6, 4-{4-[(4′-chloro-1,1′-biphenyl-2-yl)methyl]piperazin-1-yl}-N-[(4-{methyl[2-(phenylthio)ethyl]amino}piperidin-1-yl)sulfonyl]benzamide]	704 nM
CC(C)N(C)CC[C@H](CSc1ccccc1)Nc1sc(S(=O)(=O)NC(=O)c2ccc(N3CCN(Cc4ccccc4-c4ccc(Cl)cc4)CC3)cc2)cc1[N+](=O)[O-] [Example 7, 4-{4-[(4′-chloro-1,1′-biphenyl-2-yl)methyl]piperazin-1-yl}-N-{[5-({(1R)-3-[isopropyl(methyl)amino]-1-[(phenylthio)methyl]propyl}amino)-4-nitrothien-2-yl]sulfonyl}benzamide]	0.084 nM
CC(C)N(C)CC[C@H](CSc1ccccc1)Nc1sc(S(=O)(=O)NC(=O)c2ccc(N3CCN(CC4=C(c5ccc(Cl)cc5)CCCC4)CC3)cc2)cc1[N+](=O)[O-] [Example 8, 4-(4-{[2-(4-chlorophenyl)cyclohex-1-en-1-yl]methyl}piperazin-1-yl)-N-{[5-({(1R)-3-[isopropyl(methyl)amino]-1-[(phenylthio)methyl]propyl}amino)-4-nitrothien-2-yl]sulfonyl}benzamide]	0.064 nM
CC(C)N(C)CC[C@H](CSc1ccccc1)Nc1sc(S(=O)(=O)NC(=O)c2ccc(N3CCN(CC4=C(c5ccc(Cl)cc5)CCC(C)(C)C4)CC3)cc2)cc1[N+](=O)[O-] [Example 9, 4-(4-{[2-(4-chlorophenyl)-5,5-dimethylcyclohex-1-en-1-yl]methyl}piperazin-1-yl)-N-{[5-({(1R)-3-[isopropyl(methyl)amino]-1-[(phenylthio)methyl]propyl}amino)-4-nitrothien-2-yl]sulfonyl}benzamide]	0.307 nM
CC(=O)/N=c1\sc(S(=O)(=O)NC(=O)c2ccc(N3CCN(Cc4ccccc4-c4ccc(Cl)cc4)CC3)cc2)nn1C [Example 10, N-{[(5Z)-5-(acetylimino)-4-methyl-4,5-dihydro-1,3,4-thiadiazol-2-yl]sulfonyl}-4-{4-[(4′-chloro-1,1′-biphenyl-2-yl)methyl]piperazin-1-yl}benzamide]	743 nM
